Assay: Toxicity in po dosed human assessed as maximum daily dose
Type: organism-based
Details: in vivo

| Structure (SMILES) | Activity |
| --- | --- |
| CC(C)(C)NC(=O)[C@@H]1C[C@@H]2CCCC[C@@H]2CN1C[C@@H](O)[C@H](Cc1ccccc1)NC(=O)[C@H](CC(N)=O)NC(=O)c1ccc2ccccc2n1 | 2000 mg |
| CN(CCOc1ccc(CC2SC(=O)NC2=O)cc1)c1ccccn1 (stereo not drawn) [ROSIGLITAZONE] | 8 mg |
| CCCN(CCC)C(=O)Cc1c(-c2ccc(Cl)cc2)nc2ccc(Cl)cn12 [ALPIDEM] | 150 mg |
| COC(=O)[C@H]1[C@H]2C[C@@H]3c4[nH]c5cc(OC)ccc5c4CCN3C[C@H]2C[C@@H](OC(=O)c2cc(OC)c(OC)c(OC)c2)[C@@H]1OC [RESERPINE] | 0.5 mg |
| CCc1nn(CCCN2CCN(c3cccc(Cl)c3)CC2)c(=O)n1CCOc1ccccc1 [NEFAZODONE] | 600 mg |
| COC(=O)C1=C(C)NC(C)=C(C(=O)OCCN(C)Cc2ccccc2)C1c1cccc([N+](=O)[O-])c1 (stereo not drawn) [NICARDIPINE] | 120 mg |
| CCCCc1nc(Cl)c(CO)n1Cc1ccc(-c2ccccc2-c2nn[nH]n2)cc1 [LOSARTAN] | 100 mg |
| CC(=O)N1CCN(c2ccc(OCC3COC(Cn4ccnc4)(c4ccc(Cl)cc4Cl)O3)cc2)CC1 (stereo not drawn) [KETOCONAZOLE] | 400 mg |
| Cc1c(C)c2c(c(C)c1O)CCC(C)(COc1ccc(CC3SC(=O)NC3=O)cc1)O2 (stereo not drawn) [TROGLITAZONE] | 600 mg |
| CCCCC1=NC2(CCCC2)C(=O)N1Cc1ccc(-c2ccccc2-c2nnn[nH]2)cc1 [IRBESARTAN] | 300 mg |
| CS(=O)(=O)CCNCc1ccc(-c2ccc3ncnc(Nc4ccc(OCc5cccc(F)c5)c(Cl)c4)c3c2)o1 [LAPATINIB] | 1500 mg |
| COc1ccc(Cl)cc1C(=O)NCCc1ccc(S(=O)(=O)NC(=O)NC2CCCCC2)cc1 [GLYBURIDE] | 20 mg |
| CCc1ccc(CCOc2ccc(CC3SC(=O)NC3=O)cc2)nc1 (stereo not drawn) [PIOGLITAZONE] | 45 mg |

— ChEMBL document CHEMBL4665680, “Drug Induced Liver Injury (DILI). Mechanisms and Medicinal Chemistry Avoidance/Mitigation Strategies” (J Med Chem, 2020)
